Measured values from patent publication US11608323B2 (SYNGENTA LIMITED, priority 2013, dated 2023).

Legend:
Format in all cases: in vivo
ABUTH [1] = experiment: Pre-emergence herbicidal activity, glasshouse pot test; details: rate 1000 g/Ha, evaluated after 13 days, scale 0-5
Procedure: (§1) Seeds of a variety of test species were sown in standard soil in pots. After cultivation for one day (pre-emergence) under controlled conditions in a glasshouse (at 24/16° C., day/night; 14 hours light; 65% humidity), the plants were sprayed with an aqueous spray solution derived from the formulation of the technical active ingredient in acetone/water (50:50) solution containing 0.5% Tween 20 (polyoxyethelyene sorbitan monolaurate, CAS RN 9005-64-5). The test plants were then grown in a glasshouse under controlled conditions (at 24/16° C., day/night; 14 hours light; 65% humidity) and watered twice daily. After 13 days, the test was evaluated (5=total damage to plant; 0=no damage to plant).

AMARE [2] = experiment: as above; details: rate 1000 g/Ha, evaluated after 13 days, scale 0-5
Procedure: as §1

ECHCG [3] = experiment: as above; details: rate 1000 g/Ha, evaluated after 13 days, scale 0-5
Procedure: as §1

SETFA [4] = experiment: as above; details: rate 1000 g/Ha, evaluated after 13 days, scale 0-5
Procedure: as §1

ZEAMX [5] = experiment: as above; details: rate 1000 g/Ha, evaluated after 13 days, scale 0-5
Procedure: as §1

ABUTH [6] = experiment: Post-emergence herbicidal activity, glasshouse pot test; details: Abutilon theophrasti; application post-emergence; rate 1000 g/Ha; evaluated after 13 days
Procedure: (§2) Seeds of a variety of test species were sown in standard soil in pots. After 8 days cultivation (post-emergence) under controlled conditions in a glasshouse (at 24/16° C., day/night; 14 hours light; 65% humidity), the plants were sprayed with an aqueous spray solution derived from the formulation of the technical active ingredient in acetone/water (50:50) solution containing 0.5% Tween 20 (polyoxyethelyene sorbitan monolaurate, CAS RN 9005-64-5). The test plants were then grown in a glasshouse under controlled conditions (at 24/16° C., day/night; 14 hours light; 65% humidity) and watered twice daily. After 13 days, the test was evaluated (5=total damage to plant; 0=no damage to plant).

AMARE [7] = experiment: as above; details: Amaranthus retroflexus; application post-emergence; rate 1000 g/Ha; evaluated after 13 days
Procedure: as §2

ECHCG [8] = experiment: as above; details: Echinochloa crus-galli; application post-emergence; rate 1000 g/Ha; evaluated after 13 days
Procedure: as §2

SETFA [9] = experiment: as above; details: Setaria faberi; application post-emergence; rate 1000 g/Ha; evaluated after 13 days
Procedure: as §2

ZEAMX [10] = experiment: as above; details: Zea mays; application post-emergence; rate 1000 g/Ha; evaluated after 13 days
Procedure: as §2

Structure (SMILES) | ABUTH damage score, application pre-emergence (ABUTH [1]) | AMARE damage score, application pre-emergence (AMARE [2]) | ECHCG damage score, application pre-emergence (ECHCG [3]) | SETFA damage score, application pre-emergence (SETFA [4]) | ZEAMX damage score, application pre-emergence (ZEAMX [5]) | Post-emergence herbicidal activity ABUTH (damage score 0-5) (ABUTH [6]) | Post-emergence herbicidal activity AMARE (damage score 0-5) (AMARE [7]) | Post-emergence herbicidal activity ECHCG (damage score 0-5) (ECHCG [8]) | Post-emergence herbicidal activity SETFA (damage score 0-5) (SETFA [9]) | Post-emergence herbicidal activity ZEAMX (damage score 0-5) (ZEAMX [10])
CCN1C(=O)N(c2cc(C(F)(F)F)ccn2)C(O)C1C (stereo not shown) [Compound A88] | 5 | 5 | 4 | 4 | 2 | 5 | 5 | 5 | 5 | 3
CCN1CC(O)N(c2cc(C(F)(F)F)ccn2)C1=O (stereo not shown) [Compound A95] | 5 | 5 | 5 | 5 | 1 | 5 | 5 | 5 | 5 | 2
CC1C(O)N(c2cc(Cl)ccn2)C(=O)N1C (stereo not shown) [Compound A92] | 5 | 5 | 5 | 4 | 3 | 5 | 5 | 5 | 5 | 4
CCO[C@H]1C(O)N(c2cc(C(F)(F)F)ccn2)C(=O)N1C (single isomer, unassigned) [Compound A35] | 4 | 5 | 4 | 4 | 2 | 0 | 5 | 3 | 3 | 1
C#CCN1C(=O)N(c2cc(C(F)(F)F)ccn2)C(O)C1C (stereo not shown) [Compound A87] | 5 | 5 | 4 | 4 | 3 | 5 | 5 | 5 | 5 | 4
CC1C(O)N(c2cc(C(F)(F)F)ccn2)C(=O)N1C(F)F (stereo not shown) [Compound A106] | 5 | 5 | 4 | 3 | 2 | 5 | 5 | 4 | 4 | 1
COC[C@H]1C(O)N(c2cc(C(F)(F)F)ccn2)C(=O)N1C (stereo partly shown) [Compound A78] | 5 | 5 | 4 | 3 | 1 | 5 | 5 | 5 | 3 | 0
